Laboratory results from ChEMBL document CHEMBL4715817, “Python Cathelicidin CATHPb1 Protects against Multidrug-Resistant Staphylococcal Infections by Antimicrobial-Immunomodulatory Duality” (J Med Chem, 2018).
Converted amounts (≈) assume the structure as drawn. The source made the active and inactive calls. The rule behind the calls is not given here. Peptide text beside a SMILES is read from it.

What was measured:
Staphylococcus aureus = test: Antimicrobial activity against methicillin resistant Staphylococcus aureus IS 08032712, incubated for 16 to 18 hrs by fluorescence microplate reader analysis; format: functional; settings: time 16-18 hrs
Escherichia coli = test: In vivo antibacterial activity against Escherichia coli ATCC 25922 infected in kunming mouse assessed as decrease in bacterial load in peritoneal lavage at 10 mg/kg, ip administered 4 hrs after infection and measured 18 hrs after infection; format: functional, organism-based; settings: time 14.0 hrs
Mus musculus = test: Immunomodulatory activity in Kunming mouse infected with vancomycin-resistant Staphylococcus aureus assessed as increased in IL-10 level in peritoneal lavage at 10 mg/kg, ip administered 4 hrs after infection by ELISA; format: functional, organism-based
L02 = test: Cytotoxicity against human HL7702 cells assessed as cell death at 100 ug/ml by MTT assay; format: cell-based
Macrophage = test: Inhibition of LPS-induced phosphorylation of p38 in mouse peritoneal macrophage pretreated for 1 hr followed by LPS stimulation measured after 30 mins by Western blot analysis; format: tissue-based; settings: dose 5-20 µg/ml, time 1.5 hrs
[1] = Hemolytic activity in human erythrocytes measured at 100 ug/ml; format: ADME, cell-based, Erythrocyte; settings: at 100 µg/mL, read-out: Activity

SMILES: CC[C@H](C)[C@H](NC(=O)[C@@H]1CCCN1C(=O)[C@@H](NC(=O)[C@@H](NC(=O)CNC(=O)CNC(=O)[C@@H](NC(=O)[C@H](Cc1ccccc1)NC(=O)[C@@H](NC(=O)[C@H](CCCCN)NC(=O)[C@@H](NC(=O)[C@H](CCCCN)NC(=O)[C@H](CCCCN)NC(=O)[C@H](Cc1ccccc1)NC(=O)[C@@H](NC(=O)[C@H](CCCCN)NC(=O)[C@H](CCCNC(=N)N)NC(=O)[C@H](Cc1ccccc1)NC(=O)CNC(=O)[C@H](CCCCN)NC(=O)[C@H](CCCCN)NC(=O)[C@@H](NC(=O)[C@H](CCCCN)NC(=O)[C@H](CCCNC(=N)N)NC(=O)[C@H](Cc1ccccc1)NC(=O)[C@H](Cc1ccccc1)NC(=O)[C@H](CCCCN)NC(=O)[C@H](CCCCN)NC(=O)[C@H](Cc1ccccc1)NC(=O)[C@H](CCCNC(=N)N)NC(=O)[C@@H](N)CCCCN)[C@@H](C)CC)[C@@H](C)CC)[C@@H](C)O)[C@@H](C)CC)[C@@H](C)CC)[C@@H](C)O)[C@@H](C)CC)C(=O)O (H-KRFKKFFRKIKKGFRKIFKKTKIFIGGTIPI-OH)
- MIC (Staphylococcus aureus): 1.17 µg/mL (≈ 0.308 µM)
- Activity (Escherichia coli): Active
- Activity (Mus musculus): Active
- Activity (L02): 4.46%
- inhibition (Macrophage): Dose-dependent effect
- hemolysis at 100 ug/ml [1]: 6.63%
